According to patent US11198713B2, “Agents modulating beta-catenin functions and methods thereof” (FOG PHARMACEUTICALS, INC., priority 2017, dated 2021):
pEC50: −log10 of the molar value.

Target: T1, full-length beta-catenin (Axin site) (Homo sapiens, UniProt P35222)
T1 construct: 15 nM full-length beta-catenin, 20 nM FITC labeled peptide in buffer
T1 sequence (P35222 1-781): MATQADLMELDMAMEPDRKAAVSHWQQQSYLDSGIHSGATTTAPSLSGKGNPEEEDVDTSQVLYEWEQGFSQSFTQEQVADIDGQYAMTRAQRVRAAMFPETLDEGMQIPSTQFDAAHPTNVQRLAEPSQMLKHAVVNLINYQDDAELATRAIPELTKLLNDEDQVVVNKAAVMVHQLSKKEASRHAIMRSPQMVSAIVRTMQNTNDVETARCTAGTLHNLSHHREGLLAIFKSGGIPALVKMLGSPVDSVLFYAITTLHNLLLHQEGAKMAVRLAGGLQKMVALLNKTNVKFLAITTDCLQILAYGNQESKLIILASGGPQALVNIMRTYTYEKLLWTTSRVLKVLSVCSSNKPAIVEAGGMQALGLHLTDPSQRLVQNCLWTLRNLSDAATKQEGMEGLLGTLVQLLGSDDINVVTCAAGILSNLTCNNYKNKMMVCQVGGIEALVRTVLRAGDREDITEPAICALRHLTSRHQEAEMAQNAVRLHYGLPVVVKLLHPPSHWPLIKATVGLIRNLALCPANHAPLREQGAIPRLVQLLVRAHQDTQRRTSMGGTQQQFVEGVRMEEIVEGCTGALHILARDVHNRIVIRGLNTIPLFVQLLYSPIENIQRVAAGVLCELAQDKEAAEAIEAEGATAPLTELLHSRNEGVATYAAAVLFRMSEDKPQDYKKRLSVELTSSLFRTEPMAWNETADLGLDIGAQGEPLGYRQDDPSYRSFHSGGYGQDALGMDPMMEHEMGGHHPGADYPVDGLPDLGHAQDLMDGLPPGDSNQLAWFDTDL
Assay: Competition fluorescence polarization assay (Axin site probe)
Format: binding
Details: competition fluorescence polarization, Table 2; read-out: in vitro FP EC50
Outline: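 Competition FP: 15 nM full-length β-catenin pre-incubated 5 min with 20 nM FITC-labelled stapled Axin-site peptide, then titrated peptide added (3-fold series from 5 μM) for 15 min in the dark. Buffer 50 mM Tris pH 8.0, 250 mM NaCl, 2% glycerol, 0.5 mM EDTA; duplicate reads.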

| SMILES | pEC50 |
| --- | --- |
| CCC[C@H](NC(=O)[C@]12CCN(C1)C(=O)OCC=CCCCCCC[C@@](C)(NC(=O)[C@H](C)NC(C)=O)C(=O)N[C@@H]([C@@H](C)CC)C(=O)N[C@@H](CC(C)C)C(=O)N[C@@H](CC(=O)O)C(=O)N[C@@H](C)C(=O)N[C@@H](Cc1ccccn1)C(=O)N[C@@H]([C@@H](C)CC)C(=O)N2)C(=O)N[C@H](C(=O)N[C@@H](Cc1c[nH]c2ccccc12)C(N)=O)C(C)C (single isomer, unassigned) [FP0567c Isomer 2, Ac-A-R8-I-L-D-A-2pyr-I-MB-Nva-V-W-NH2] | < 5.30 |
| CC[C@H](C)[C@@H]1NC(=O)[C@H](Cc2ccccn2)NC(=O)[C@H](C)NC(=O)[C@H](CC(=O)O)NC(=O)[C@H](CC(C)C)NC(=O)[C@H]([C@@H](C)CC)NC(=O)[C@](C)(NC(=O)[C@H](C)NC(C)=O)CCCCCCC=CCOC(=O)N2CC[C@@](C(=O)N[C@H](C(=O)N[C@H](C(=O)N[C@@H](Cc3c[nH]c4ccccc34)C(N)=O)C(C)C)C(C)(C)C)(C2)NC1=O (single isomer, unassigned) [FP0568c Isomer 1, Ac-A-R8-I-L-D-A-2pyr-I-MB-tLeu-V-W-NH2] | < 5.30 |
| CC[C@H](C)[C@@H]1NC(=O)[C@H](Cc2ccccn2)NC(=O)[C@H](C)NC(=O)[C@H](CC(=O)O)NC(=O)[C@H](CC(C)C)NC(=O)[C@H]([C@@H](C)CC)NC(=O)[C@](C)(NC(=O)[C@H](C)NC(C)=O)CCCCCCC=CCOC(=O)N2CC[C@@](C(=O)N[C@H](C(=O)N[C@H](C(=O)N[C@@H](Cc3c[nH]c4ccccc34)C(N)=O)C(C)C)C(C)(C)C)(C2)NC1=O (single isomer, unassigned) [FP0568c Isomer 2, Ac-A-R8-I-L-D-A-2pyr-I-MB-tLeu-V-W-NH2] | < 5.30 |
| CC[C@H](C)[C@@H]1NC(=O)[C@H](Cc2ccccn2)NC(=O)[C@H](C)NC(=O)[C@H](CC(=O)O)NC(=O)[C@H](CC(C)C)NC(=O)[C@H]([C@@H](C)CC)NC(=O)[C@](C)(NC(=O)[C@H](C)NC(C)=O)CCCCCCC=CCOC(=O)N2CC[C@@](C(=O)N[C@@H](Cc3ccco3)C(=O)N[C@H](C(=O)N[C@@H](Cc3c[nH]c4ccccc34)C(N)=O)C(C)C)(C2)NC1=O (single isomer, unassigned) [FP0569c Isomer 1, Ac-A-R8-I-L-D-A-2pyr-I-MB-fur-V-W-NH2] | < 5.30 |
| CC[C@H](C)[C@@H]1NC(=O)[C@H](Cc2ccccn2)NC(=O)[C@H](C)NC(=O)[C@H](CC(=O)O)NC(=O)[C@H](CC(C)C)NC(=O)[C@H]([C@@H](C)CC)NC(=O)[C@](C)(NC(=O)[C@H](C)NC(C)=O)CCCCCCC=CCOC(=O)N2CC[C@@](C(=O)N[C@@H](Cc3ccco3)C(=O)N[C@H](C(=O)N[C@@H](Cc3c[nH]c4ccccc34)C(N)=O)C(C)C)(C2)NC1=O (single isomer, unassigned) [FP0569c Isomer 2, Ac-A-R8-I-L-D-A-2pyr-I-MB-fur-V-W-NH2] | < 5.30 |

Continued, values first:

| pEC50 | SMILES |
| --- | --- |
| < 5.30 | CC[C@H](C)[C@@H]1NC(=O)[C@H](Cc2ccccn2)NC(=O)[C@H](C)NC(=O)[C@H](CC(=O)O)NC(=O)[C@H](CC(C)C)NC(=O)[C@H]([C@@H](C)CC)NC(=O)[C@](C)(NC(=O)[C@H](C)NC(C)=O)CCCCCCC=CCOC(=O)N2CC[C@@](C(=O)N[C@@H](CC3CCCCC3)C(=O)N[C@H](C(=O)N[C@@H](Cc3c[nH]c4ccccc34)C(N)=O)C(C)C)(C2)NC1=O (single isomer, unassigned) [FP0566c Isomer 1, Ac-A-R8-I-L-D-A-2pyr-I-MB-Cha-V-W-NH2] |
| < 5.30 | CCC[C@H](NC(=O)[C@]12CCN(C1)C(=O)OCC=CCCCCCC[C@@](C)(NC(=O)[C@H](C)NC(C)=O)C(=O)N[C@@H]([C@@H](C)CC)C(=O)N[C@@H](CC(C)C)C(=O)N[C@@H](CC(=O)O)C(=O)N[C@@H](C)C(=O)N[C@@H](Cc1ccccn1)C(=O)N[C@@H]([C@@H](C)CC)C(=O)N2)C(=O)N[C@H](C(=O)N[C@@H](Cc1c[nH]c2ccccc12)C(N)=O)C(C)C (single isomer, unassigned) [FP0567c Isomer 1, Ac-A-R8-I-L-D-A-2pyr-I-MB-Nva-V-W-NH2] |
